Assay [1] relates to S. aureus (129B strain). Nature of the assay: Antibacterial activity in liquid medium (optical density). Format: cell-based, Staphylococcus aureus. Also on record: key to change of optical density vs negative control: ↓: Decrease in the parameter (optical density) compared to the negative control; −: No decrease in the parameter; ↑: Reverse effect (increase in the optical density compared to the control). As to conditions: 24 h, 37 °C, OD 595 nm. The procedure:
(§1) To evaluate the antibacterial activity of peptides in liquid culture, a stationary-phase culture of the tested bacterial strain was diluted 100-fold in fresh medium containing peptides or gentamicin (positive control) at the specified concentrations. A total volume of 200 µL was added to each well of a 96-well round-bottom microtiter plate. After 24 h of incubation at 37 °C, the samples were transferred to a flat-bottom 96-well microtiter plate, and the optical density was measured at 595 nm. Separately, the optical density of medium containing peptides but no bacteria was measured. These values were used as baseline (zero) readings for subsequent data analysis.

For assay [2], the system named is E. coli (MG1655 strain). The description is as above. Format: cell-based, Escherichia coli. Also on record: key to change of optical density vs negative control: ↓: Decrease in the parameter (optical density) compared to the negative control; −: No decrease in the parameter; ↑: Reverse effect (increase in the optical density compared to the control). As to conditions: 24 h, 37 °C; for change of optical density vs negative control: OD 595 nm. As to the method: as §1

In assay [3] the test system is MRSA (SA 180-F strain). In words: Antibacterial activity on 0.7% agar (inhibition zone). Format: cell-based, methicillin-resistant Staphylococcus aureus. Also on record: key: +: The presence of a bacterial growth inhibition zone; −: The absence of a bacterial growth inhibition zone. As to conditions: drop on 0.7% agar, 24 h. As to the method: (§2) Drops of the samples were applied to the surface of solidified 0.7% agar at the concentrations indicated in Table 2 and Supplementary S2 (Figures S1–S4). After 24 h of incubation, the results were evaluated based on the presence or absence (+/−) of inhibition zones.
(§3) Once the agar solidified, drops of peptide samples at the concentrations 1, 0.1, 0.01, and 0.001 mg/mL were applied to the agar surface.

The test system of assay [4] is S. aureus (129B strain). Described as above. Format: cell-based, Staphylococcus aureus. Also on record: key: +: The presence of a bacterial growth inhibition zone; −: The absence of a bacterial growth inhibition zone. Particulars: drop on 0.7% agar, 24 h. The procedure: as §2, §3
The test system of assay [5] is P. aeruginosa (2943 strain). The assay is described as above. Type of assay: cell-based, Pseudomonas aeruginosa. Also noted: key: +: The presence of a bacterial growth inhibition zone; −: The absence of a bacterial growth inhibition zone. As to conditions: drop on 0.7% agar, 24 h. The procedure: as §2, §3
For assay [6], the system named is S. aureus (129B strain). In words: Early biofilm formation, crystal violet staining. Format: cell-based, Staphylococcus aureus. Also noted: key: ↓: Decrease in the parameter (optical density) compared to the negative control; −: No decrease in the parameter; ↑: Reverse effect (increase in the optical density compared to the control). Particulars: peptide present from inoculation, 24 h, OD 595 nm. As to the method:
(§4) After 24 h of incubation, the medium was removed. To assess the total biofilm biomass, the wells were rinsed with sterile PBS solution and stained with 0.1% crystal violet. The dye bound to the surface was then removed using 95% ethanol. To assess the presence of metabolically active cells, 0.3% MTT (PanEco Ltd., Moscow, Russia) solution was added to each well, and the plates were incubated at 37 °C for 2 h. After incubation, the MTT solution was removed, 150 µL of DMSO (Chimmed, Moscow, Russia) and 25 µL of glycine buffer were added to each well, and the plates were left at room temperature for 15 min. The resulting solutions were transferred to a flat-bottom 96-well plate, and optical density was measured at 595 nm.

Assay [7] deals with E. coli (MG1655 strain). Nature of the assay: Early biofilm formation, crystal violet staining. Type of assay: cell-based, Escherichia coli. Also noted: key: ↓: Decrease in the parameter (optical density) compared to the negative control; −: No decrease in the parameter; ↑: Reverse effect (increase in the optical density compared to the control). Particulars: peptide present from inoculation, 24 h, OD 595 nm. The procedure: as §4

Assay [8] relates to P. aeruginosa (2943 strain). In words: Early biofilm formation, MTT assay. Format: cell-based, Pseudomonas aeruginosa. Also on record: key: ↓: Decrease in the parameter (optical density) compared to the negative control; −: No decrease in the parameter; ↑: Reverse effect (increase in the optical density compared to the control). As to conditions: 24 h, 0.3% MTT 2 h 37 °C, OD 595 nm, listed as V31K^S. The procedure:
as §4
Background: Tetrazolium dyes change colour on reduction, which living cells bring about.

Assay [9] concerns MRSA (SA 180-F strain). In words: Mature biofilms, crystal violet staining. Type of assay: cell-based, methicillin-resistant Staphylococcus aureus. Also on record: key: ↓: Decrease in the parameter (optical density) compared to the negative control; −: No decrease in the parameter; ↑: Reverse effect (increase in the optical density compared to the control). As to conditions: mature biofilm: peptide added after 24 h, further 24 h; 0.01-10 mg/mL; listed as V31K^S. As to the method: as §4
(§5) A stationary-phase culture of the tested strain was diluted 100-fold in fresh medium (200 µL per well) and added to the wells of a 96-well round-bottom plate. […] After another 24 h, the medium was removed and the wells were rinsed with sterile PBS to eliminate planktonic cells. The procedures for assessing total biofilm biomass and cell metabolic activity using crystal violet and MTT assays were performed in the same manner as described above for early-stage biofilm experiments.

Assay [10] has as its system P. aeruginosa (2943 strain). Nature of the assay: Mature biofilms, crystal violet staining. Also on record: key: ↓: Decrease in the parameter (optical density) compared to the negative control; −: No decrease in the parameter; ↑: Reverse effect (increase in the optical density compared to the control). Particulars: mature biofilm: peptide added after 24 h, further 24 h; 0.01-10 mg/mL. Type of assay: cell-based, Pseudomonas aeruginosa. As to the method: as §4, §5

Assay [11] relates to E. coli (MG1655 strain). In words: Mature biofilms, MTT assay. Type of assay: cell-based, Escherichia coli. Also on record: key: ↓: Decrease in the parameter (optical density) compared to the negative control; −: No decrease in the optical density; ↑: Reverse effect (increase in the optical density compared to the control). As to conditions: mature biofilm: peptide added after 24 h, further 24 h; 0.01-10 mg/mL. The procedure:
as §4, §5

For the sequence “VTDFGVFVEIGGGGSRQIKIWFQNRRMKWKK [V31K^T, amyloidogenic fragment of S1 of T. thermophilus linked via glycine-rich linker to antennapedia peptide]”, the “change of optical density vs negative control” value was “−” in [1], “↑” in assay [1] (listed as V31K^S), “−” in assay [2] and “↓ (0.1 mg/mL)” in assay [2] (listed as V31K^S). Besides, the “concentration given with ↓ (decrease in optical density)” value in assay [2] is recorded as 0.1 mg/mL. In addition, the “bacterial growth inhibition zone” value in assay [3] (0.001 mg/mL), in assay [3] (0.01 mg/mL), in assay [3] (0.1 mg/mL), in assay [3] (1 mg/mL), in assay [4] (0.001 mg/mL) and in assay [4] (0.01 mg/mL) was “−” each time. In addition, the “bacterial growth inhibition zone” value in assay [4] (0.1 mg/mL), in assay [4] (1 mg/mL), in assay [5] (0.001 mg/mL), in assay [5] (0.01 mg/mL), in assay [5] (0.1 mg/mL) and in assay [5] (1 mg/mL) was “−” throughout. Moreover, the “change of optical density after crystal violet staining vs negative control” value in assay [6], in assay [7], in assay [9] and in assay [10] was “↑” throughout. Further, the “change of optical density after MTT assay vs negative control” value is recorded as “↓ (10 mg/mL)” in assay [8] and “−” in assay [11].
